Experiments:
PC3 tumors = experiment: Apoptosis TUNEL assay in PC3 tumors (Compound 1, rapamycin); format: in vivo, SCID mice; conditions: 25 mg/kg oral QD for 6 days, 2 hours after last dose
Method: Two hours after the last dose of either vehicle, Compound 1, or rapamycin, the mice were euthanized and the tumors were dissected. The tumors were snap frozen in liquid nitrogen and processed for immunohistochemistry (IHC) and TUNEL.
To detect the apoptotic cells, fluorescence in situ cell death detection kit (Roche Biosciences) was used. Five to ten micron thick cryostat sections were fixed in 4% paraformaldehyde for 15 minutes at room temperature, washed, permeabilized with 0.3% triton X-100 and 0.1% sodium citrate in PBS for 10 minutes. Sections were then washed in PBS and incubated with a labeling solution containing TdT enzyme for 1 hour at 37° C. in the dark. The sections were washed in PBS, counterstained with Hoechst dye (0.4 μg/mL) at room temperature for 10 minutes and mounted in Prolong Gold antifade reagent.
The tissues sections processed for apoptosis or immunostained for proliferating cells (Ki-67) or blood vessels were quantitated using Metamorph software. Using 20× objective, 5 different fields from each section, 2 to 4 sections from each tumor, and 3 to 4 tumors from each treatment group or control were used for quantitation. The area of interest was expressed as the percent threshold area of the total area.

S6RP (S235/236) = experiment: Phospho-S6RP (S235/S236) in PC-3 cell lysates, MSD (Compound 2); format: cell-based; conditions: Homo sapiens; PC-3, 1 hour; read-out: mTORC1 S6RP (S235/236) IC50

IC50 (S6RP (S235/236)) | Compound | TUNEL-positive cells compared with the vehicle control (PC3 tumors)
– | CO[C@H]1CC[C@H](N2C(=O)CNc3ncc(-c4ccc(C(C)(C)O)nc4)nc32)CC1 [Compound 1, 7-(6-(2-hydroxypropan-2-yl)pyridin-3-yl)-1-((1r,4r)-4-methoxycyclohexyl)-3,4-dihydropyrazino-[2,3-b]pyrazin-2(1H)-one] | about a two fold increase
23 ± 7 nM | CCN1C(=O)CNc2ncc(-c3ccc(-c4nc[nH]n4)nc3C)nc21 [Compound 2, 1-ethyl-7-(2-methyl-6-(1H-1,2,4-triazol-3-yl)pyridin-3-yl)-3,4-dihydropyrazino[2,3-b]pyrazin-2(1H)-one] | –

Source: US20140113904A1, “TREATMENT OF CANCER WITH TOR KINASE INHIBITORS” (SIGNAL PHARMACEUTICALS, LLC, priority 2012, published 2014)
